Data from PubChem BioAssay (NCI).
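48-hour exposure; five concentrations; linearly interpolated endpoints. TGI denotes the concentration required for complete inhibition of growth.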

Key:
Experiment in all cases: inhibition of tumour cell growth, NCI panel, 48 h
[1] = tested on: 786-0 renal
[2] = tested on: ACHN renal
[3] = tested on: BT-549 breast
[4] = tested on: HCT-15 colon
[5] = tested on: HS 578T breast
[6] = tested on: MDA-MB-435
[7] = tested on: NCI-H226 lung
[8] = tested on: NCI-H23 lung
[9] = tested on: NCI-H522 lung
[10] = tested on: OVCAR-5 ovarian
[11] = tested on: SF-268 CNS
[12] = tested on: SK-OV-3 ovarian
[13] = tested on: SN12C renal
[14] = tested on: SW-620 colon
[15] = tested on: T-47D breast
[16] = tested on: TK-10 renal
[17] = tested on: U251 CNS
[18] = tested on: A498 renal
[19] = tested on: HOP-92 NSCLC

Structure (SMILES)	TGI [1]	TGI [2]	TGI [3]	TGI [4]	TGI [5]	TGI [6]	TGI [7]	TGI [8]	TGI [9]	TGI [10]	TGI [11]	TGI [12]	TGI [13]	TGI [14]	TGI [15]	TGI [16]	TGI [17]	TGI [18]	TGI [19]
COc1ccc(C(OCC2OC3(COC(c4ccccc4)(c4ccc(OC)cc4)c4ccc(OC)cc4)C(Oc4nc(=O)ccn43)C2O)(c2ccccc2)c2ccc(OC)cc2)cc1 (centres undefined)	> 100 µM	> 100 µM	> 100 µM	> 100 µM	51.8 µM	> 100 µM	> 100 µM	> 100 µM	> 100 µM	> 100 µM	> 100 µM	> 100 µM	> 100 µM	> 100 µM	> 100 µM	> 100 µM	> 100 µM	–	–
CCCCCCCCCC(=O)NC(CCC(=O)N(CCNC(=O)c1nc(-c2ccccc2)oc1-c1ccccc1)Cc1ccccc1)C(=O)O (centres undefined)	32 µM	38 µM	33.5 µM	29.6 µM	–	38.3 µM	55.5 µM	33.9 µM	34.3 µM	31.7 µM	34.6 µM	30.7 µM	37.6 µM	41.8 µM	47.7 µM	53.6 µM	35.8 µM	39.7 µM	34.8 µM
COc1ccc(C2Oc3c(cccc3-c3c(-c4ccc(O)cc4)oc4cc(O)cc(O)c4c3=O)C(=O)C2O)cc1O (centres undefined)	> 100 µM	> 100 µM	> 100 µM	> 100 µM	–	> 100 µM	> 100 µM	> 100 µM	–	> 100 µM	> 100 µM	> 100 µM	> 100 µM	> 100 µM	> 100 µM	> 100 µM	> 100 µM	> 100 µM	> 100 µM
COc1cc2c(c(OC)c1OC)C(=O)[C@@H](O)[C@H]2NC(N)=O	> 100 µM	> 100 µM	–	> 100 µM	> 100 µM	> 100 µM	> 100 µM	> 100 µM	> 100 µM	> 100 µM	> 100 µM	–	> 100 µM	> 100 µM	> 100 µM	> 100 µM	> 100 µM	–	–
O=C(Cn1c2c(c3ccccc31)CCCC2)N1CCCCC1	> 100 µM	> 100 µM	> 100 µM	> 100 µM	> 100 µM	> 100 µM	–	> 100 µM	–	> 100 µM	–	> 100 µM	> 100 µM	> 100 µM	–	> 100 µM	–	–	> 100 µM
COC1(OC)N=C(N)C2(C#N)C(C)=C3NCN(C)N=C3C12C#N (centres undefined)	> 100 µM	> 100 µM	–	> 100 µM	> 100 µM	> 100 µM	> 100 µM	> 100 µM	> 100 µM	> 100 µM	> 100 µM	> 100 µM	> 100 µM	> 100 µM	> 100 µM	> 100 µM	> 100 µM	> 100 µM	> 100 µM
CCOC(=O)CC(=O)Nc1cccc2sc3ncccc3c(=O)c12	> 100 µM	> 100 µM	> 100 µM	> 100 µM	> 100 µM	> 100 µM	> 100 µM	> 100 µM	> 100 µM	> 100 µM	> 100 µM	> 100 µM	> 100 µM	> 100 µM	> 100 µM	> 100 µM	> 100 µM	–	–
CC(C)[C@@H]1CC[C@@H](C)C[C@H]1OC(=O)/C=C1\C(C(=O)O[C@@H]2C[C@H](C)CC[C@H]2C(C)C)[C@H]2C=C[C@@H]1O2 (some centres undefined)	> 100 µM	> 100 µM	–	> 100 µM	> 100 µM	> 100 µM	> 100 µM	> 100 µM	> 100 µM	> 100 µM	> 100 µM	> 100 µM	> 100 µM	> 100 µM	> 100 µM	> 100 µM	> 100 µM	> 100 µM	> 100 µM
COc1ccc(CCc2ccc3c(c2)OCO3)cc1	> 100 µM	> 100 µM	> 100 µM	> 100 µM	> 100 µM	42.6 µM	> 100 µM	> 100 µM	> 100 µM	> 100 µM	> 100 µM	> 100 µM	> 100 µM	> 100 µM	–	> 100 µM	> 100 µM	> 100 µM	> 100 µM
CC(Cc1ccccc1)N(C)Cc1nc(C2CCC([N+](=O)[O-])O2)no1 (centres undefined)	24.6 µM	–	–	7.07 µM	17.9 µM	20.4 µM	32.4 µM	19.4 µM	–	29 µM	> 100 µM	84 µM	11 µM	14.9 µM	66.1 µM	28.4 µM	22.9 µM	–	51.2 µM
O=C(Nc1ccc([N+](=O)[O-])cc1[N+](=O)[O-])C(=O)C(C(=O)c1ccc(Cl)c(Cl)c1)C1OC(=O)c2ccccc21 (centres undefined)	41.5 µM	> 100 µM	–	76.7 µM	–	–	36 µM	39.8 µM	44.7 µM	65.9 µM	76.3 µM	82.5 µM	85 µM	54.6 µM	–	93.7 µM	> 100 µM	68.8 µM	9.46 µM
CC(=O)c1c2c(cc3c1CC1(Cc4cc5c(cc4C1)C(=O)CCC5)C3)CCCC2 (centres undefined)	33.1 µM	17.2 µM	–	19.3 µM	> 88.3 µM	11.4 µM	41.8 µM	> 100 µM	31.4 µM	> 100 µM	65 µM	> 100 µM	> 100 µM	> 100 µM	> 81.7 µM	> 100 µM	> 100 µM	8.95 µM	40.1 µM
CC(=O)NC1CC(C(C)(C)NC(C)=O)CC=C1C (centres undefined)	> 100 µM	–	> 100 µM	> 100 µM	–	> 100 µM	–	> 100 µM	> 100 µM	> 100 µM	> 100 µM	> 100 µM	> 100 µM	> 100 µM	> 100 µM	> 100 µM	> 100 µM	–	> 100 µM
